Laboratory results from patent US12060334B2, “3-substituted phenazine derivatives as antimicrobial agents” (University of Florida Research Foundation, Incorporated, priority 2021, dated 2024).
In brackets after ≈: the same amount, converted by molar mass. Where two headings read alike, the source gives them in different places. Marks after values point to notes of the source that are not given here.

Key:
[1] = test system: Mtb CDC1551; experiment: microbe, parasite or virus in culture; format: cell-based, Mycobacterium tuberculosis; details: Mycobacterium tuberculosis, CDC1551, 120 h
[2] = test system: human red blood cells; experiment: Hemolysis assay with red blood cells; details: human RBCs, 1 hour, 37° C.
Method: Hemolysis assays are used to determine the membrane-lysis activity of a compound, which is of particular interest to this work as membrane-lysing agents (e.g., QACs) can eradicate biofilms.
Cytotoxicity Assay against HEK-293 Cells.^48 The viability of HEK-293 cells was assessed by the MTT assay. The cells were cultured in DMEM medium containing 10% fetal bovine serum and 100 U/mL penicillin and streptomycin. The cells (10^4 cells/well) were seeded onto a 96-well plate and maintained at 37° C. in a humidified incubator under 5% CO2 overnight. […] After incubation at 37° C. for 72 hours, 10 μL of MTT (5 mg/mL) in PBS was added to each well and incubated for 4 hours, followed by the aspiration of the medium. Dimethyl sulfoxide (DMSO, 100 μL) was then added to each well to dissolve the MTT in the wells, and the plate was agitated for 1 hour. The optical density (OD) was measured at 570 nm using a UV/vis microplate spectrophotometer (BioTek). The percent inhibition was calculated as follows: Inhibition (%)=(1−test OD570/non-treated OD570)×100%. The data were analyzed by Origin. Hemolysis Assay with Red Blood Cells. […] The washing was repeated three times with the buffer. In 96-well plate, test compounds were added to the buffer from DMSO stocks. […] The plate was then incubated for 1 hour at 37° C. After incubation, the plate was centrifuged for 5 minutes at 3,500 rpm before 80 μL of the supernatant was transferred to another 96-well plate to obtain an optical density (OD) read at 405 nm. DMSO served as the negative control (0% hemolysis) while Triton X served as the positive control (100% hemolysis) in these experiments. The percent hemolysis was calculated as (OD405 of the compound treated RBCs−OD405 DMSO control)/(OD405 Triton X treated RBCs−OD405 buffer) from three independent experiments.

[3] = test system: Mtb H37Ra; experiment: MIC assay for Mtb H37Ra; details: seven days, 37° C.
[4] = test system: MRSA-1707 biofilms; experiment: Calgary Biofilm Device (CBD) assay; details: Staphylococcus aureus, read-out: MRSA-1707 MBC
[5] = test system: HepG2 cells; experiment: Alamar Blue cytotoxicity assay, HepG2; details: read-out: Hep G2 Cytotox. (IC50), 24-h
[6] = test system: HeLa cells; experiment: LDH release assay for HeLa cytotoxicity; details: read-out: HeLa Cell Cytotox. (IC50), 24-h, tested at 25, 50 and 100 μM
[7] = test system: MRSA-44; experiment: MIC susceptibility assay (broth microdilution); details: Staphylococcus aureus, 16 h, read-out: MIC MRSA-44
Method: (§1) (MIC values were further supported by spectrophotometric readings at OD600). The concentration range tested for each HP compound during this study was 0.05 to 50 μM. DMSO served as our vehicle and negative control in each microdilution MIC assay. DMSO was serially diluted with a top concentration of 0.5% v/v.

[8] = test system: J774 MΦ; experiment: Alamar Blue cytotoxicity assay, J774 macrophages; details: read-out: J774 MΦ Cytotox. (IC50), 24-h
[9] = pKa determination by UV-vis spectroscopy; format: physicochemical; details: UV-vis, 1:1 water:methanol phosphate buffers
Method: (c) pKa determination of select HP analogues.^36 Dissociation constants (pKa) for select HP analogues were determined using UV-vis spectroscopy and the Henderson-Hasselbalch equation. Buffers were prepared using potassium phosphate monobasic (KH2PO4) and sodium phosphate dibasic ([…]) in a 1:1 solution of water:methanol to achieve a pH range of 4.07 to 9.66 (ammonium hydroxide was added to prepare buffer pH over 9.80). Compounds were added from 10 mM stock solutions in dimethyl sulfoxide (25 μL) to 1975 μL of each buffer to each evaluate analogue to yield a final compound concentration of 125 μM. Full spectral scans were performed from 200 to 800 nm in 2 nm increments to determine λmax values for the protonated phenol (HA) and the deprotonated phenolate species (A^−). The change in absorption at each determined λmax in relation to pH was monitored in each buffer and plotted as absorbance versus pH for each species. The pKa was first estimated by determining the pH of the point of intersection of the two linear curves. The visual estimation was confirmed by plotting pH versus log [A^−/HA]. The resulting plot yielded a linear regression line with a Y-intercept corresponding to a calculated pKa value.

[10] = test system: E. faecalis OG1RF; experiment: MIC susceptibility assay (broth microdilution); details: Enterococcus faecalis, 16 h, read-out: MIC E. faecalis OG1RF
Method: as §1

[11] = test system: MRSA-1707; experiment: MIC susceptibility assay (broth microdilution); details: Staphylococcus aureus, MRSA, 16 h, read-out: MIC MRSA-1707, planktonic growth inhibition, 16 h, 37° C.
Method: as §1

[12] = test system: MRSA, MRSE and VRE strains; experiment: MIC assays, summary statements over several Gram-positive strains; details: read-out: MIC against MRSA, MRSE and VRE strains
Method: as §1

[13] = test system: MRSA 1; experiment: MIC assay against clinical isolate; format: cell-based, S. aureus; details: Staphylococcus aureus
[14] = test system: MRSA 2; experiment: MIC assay against clinical isolate; format: cell-based, S. aureus; details: Staphylococcus aureus
[15] = test system: S. aureus 129; experiment: MIC assay against clinical isolate; format: cell-based; details: Staphylococcus aureus
[16] = test system: S. aureus 147; experiment: MIC assay against clinical isolate; format: cell-based
[17] = test system: S. aureus 138; experiment: MIC assay against clinical isolate; format: cell-based; details: Staphylococcus aureus
[18] = test system: S. aureus 156; experiment: MIC assay against clinical isolate; format: cell-based; details: Staphylococcus aureus, 156, read-out: MIC S. aureus 156
[19] = test system: MRSE 35984 biofilms; experiment: Calgary Biofilm Device (CBD) assay; details: Staphylococcus epidermidis, MRSE, read-out: MRSE 35984 MBC
[20] = test system: MRSE 35984; experiment: MIC susceptibility assay (broth microdilution); details: 16 h
Method: as §1

[21] = test system: VRE 700221 biofilms; experiment: Calgary Biofilm Device (CBD) assay; details: Enterococcus, read-out: VRE 700221 MBC
[22] = test system: E. faecalis OG1RF biofilms; experiment: Calgary Biofilm Device (CBD) assay; details: Enterococcus faecalis, OG1RFBIOFILMS, read-out: E.faecalis OG1RF MBC
[23] = test system: VRE 700221; experiment: MIC susceptibility assay (broth microdilution); details: 16 h
Method: The concentration range tested for each HP compound during this study was 0.05 to 50 μM. DMSO served as our vehicle and negative control in each microdilution MIC assay. DMSO was serially diluted with a top concentration of 0.5% v/v.

[24] = planktonic growth inhibition, 37° C.

Oc1cc(Cl)cc2nc3c(Cl)cc(Cl)cc3nc12 [Compound 24, 3,6,8-Trichlorophenazin-1-ol]
MIC [1]: 2.31 µM (≈ 0.692 µg/mL)
% Hemolysis at 200 μM [2]: ≤1%
MIC Mtb H37Ra [3]: 3.13 µM (≈ 0.938 µg/mL)
MBC [4]: 18.8 µM (≈ 5.63 µg/mL)
IC50 [5]: > 200 µM
IC50 [6]: > 100 µM
MIC [7]: 0.3 µM (≈ 0.0899 µg/mL)
IC50 [8]: > 200 µM

O=[N+]([O-])c1ccc(O)cc1 [4-nitrophenol, reference compound]
pKa [9]: 7.52

Cc1ccc2nc3c(O)cc(Cl)cc3nc2c1C [Compound 20, 3-Chloro-6,7-dimethylphenazin-1-ol]
MIC [10]: 12.5 µM (≈ 3.23 µg/mL)

[H]/N=C(/N)N[C@H]1[C@H](O)[C@@H](O)[C@H](O[C@@H]2O[C@@H](C)[C@](O)(C=O)[C@H]2O[C@@H]2O[C@@H](CO)[C@H](O)[C@@H](O)[C@@H]2NC)[C@@H](N/C(N)=N\[H])[C@@H]1O [Streptomycin, reference compound]
MIC Mtb H37Ra [3]: 1.32 µM (≈ 0.768 µg/mL)

Cc1cccc2nc3c(O)c(Br)c(SCCO)c(Br)c3nc12 [Compound 46, 2,4-Dibromo-3-((2-hydroxyethyl)thio)-6-methylphenazin-1-ol]
MIC [11]: 6.25 µM (≈ 2.78 µg/mL)
MIC [7]: 6.25 µM (≈ 2.78 µg/mL)
MIC [12]: 2.35 to 12.5 µM (≈ 1.04 to 5.55 µg/mL)

CCSc1c(Br)c(O)c2nc3cccc(C)c3nc2c1Br [Compound 45, 2,4-Dibromo-3-(ethylthio)-6-methylphenazin-1-ol]
MIC [1]: 1.69 µM (≈ 0.724 µg/mL)
MIC [13]: 0.31 µM (≈ 0.133 µg/mL)
MIC [14]: 0.63 µM (≈ 0.27 µg/mL)
MIC [15]: 0.47 µM (≈ 0.201 µg/mL)
MIC ([16]; Staphylococcus aureus, 147, clinical isolate, read-out: MIC S. aureus 147): 0.47 µM (≈ 0.201 µg/mL)
MIC [17]: 0.47 µM (≈ 0.201 µg/mL)
MIC [18]: 0.47 µM (≈ 0.201 µg/mL)
% Hemolysis at 200 μM [2]: 5.7%
MBC [4]: 50 µM (≈ 21.4 µg/mL)
MBC [19]: 12.5 µM (≈ 5.35 µg/mL)
IC50 [5]: > 200 µM
MIC MRSE 35984 [20, 24]: 0.30^a μM
MIC [10]: 0.78 µM (≈ 0.334 µg/mL)
IC50 [8]: > 100 µM

CN[C@H](CC(C)C)C(=O)N[C@H]1C(=O)N[C@@H](CC(N)=O)C(=O)N[C@H]2C(=O)N[C@H]3C(=O)N[C@H](C(=O)N[C@H](C(=O)O)c4cc(O)cc(O)c4-c4cc3ccc4O)[C@H](O)c3ccc(c(Cl)c3)Oc3cc2cc(c3O[C@@H]2O[C@H](CO)[C@@H](O)[C@H](O)[C@H]2O[C@H]2C[C@](C)(N)[C@H](O)[C@H](C)O2)Oc2ccc(cc2Cl)[C@H]1O [Vancomycin, reference compound]
MIC ([16]; Staphylococcus aureus, 147, read-out: MIC S. aureus 147): 0.59 µM (≈ 0.855 µg/mL)
MBC [19]: 3 µM (≈ 4.35 µg/mL)
MBC [21]: 750 µM (≈ 1090 µg/mL)
MBC [22]: 11.7 µM (≈ 17 µg/mL)
MIC ([23]; Enterococcus, VRE, read-out: MIC VRE 700221): > 100 µM
MIC VRE 700221 [23, 24]: >100 µM
